Source: PMC9104950, “Stereoselective Covalent Adduct Formation of Acyl Glucuronide Metabolite of Nonsteroidal Anti-Inflammatory Drugs with UDP-Glucuronosyltransferase” (International Journal of Molecular Sciences, 2022)

Tests used:
[1] = tested on: proteins of Cyt (cytosolic fraction of liver homogenate); test: Covalent adduct formation of NSAIDs-AG with proteins of cytosolic fraction (Cyt); format: binding, rat; conditions: 180 μM, 6 h; for covalent adduct formation with Cyt proteins: protein 1 mg/mL, 37 °C
[2] = tested on: proteins of Mic (microsomal fraction of liver homogenate); test: Covalent adduct formation of NSAIDs-AG with proteins of microsomal fraction (Mic); conditions: for covalent adduct formation with Mic proteins: protein 1 mg/mL
[3] = tested on: proteins of Nuc (nuclear fraction of liver homogenate); test: Covalent adduct formation of NSAIDs-AG with proteins of nuclear fraction (Nuc); format: binding, rat; conditions: 180 μM, 6 h; for covalent adduct formation with Nuc proteins: protein 1 mg/mL, 37 °C
UGT2B7 = target: T1, UGT2B7 (Homo sapiens, UniProt P16662); test: Covalent adduct formation of NSAIDs-AG with UGT2B7; format: binding; conditions: 180 μM, UGT 3.4 μM, 6 h; for covalent adduct formation with UGT2B7: 37 °C
T1 construct: purchased Corning, Inc
T1 sequence (P16662 24-529): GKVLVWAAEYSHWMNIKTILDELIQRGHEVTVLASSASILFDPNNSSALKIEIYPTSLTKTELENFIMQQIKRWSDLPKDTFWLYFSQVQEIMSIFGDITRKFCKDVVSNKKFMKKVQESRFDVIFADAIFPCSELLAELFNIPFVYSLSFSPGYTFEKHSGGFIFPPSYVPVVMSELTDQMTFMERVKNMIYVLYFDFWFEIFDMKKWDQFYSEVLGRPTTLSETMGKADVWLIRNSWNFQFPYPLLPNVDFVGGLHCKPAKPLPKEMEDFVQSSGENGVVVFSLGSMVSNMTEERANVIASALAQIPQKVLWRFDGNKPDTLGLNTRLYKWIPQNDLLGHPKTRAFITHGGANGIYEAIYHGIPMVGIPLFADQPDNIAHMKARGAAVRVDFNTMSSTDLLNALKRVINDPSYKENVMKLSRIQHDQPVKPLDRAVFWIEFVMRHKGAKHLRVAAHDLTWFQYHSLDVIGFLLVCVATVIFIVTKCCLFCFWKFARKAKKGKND
Protocol: (§1) The concentrations of UGT were set at 3.4 μM by the preliminary experiments on the linearity of covalent adduct formation. The covalent adduct formation of NSAIDs-AG with organelle proteins and UGT was determined according to previous reports on NSAIDs-AG with albumin with some modifications. After a deproteinization of the reaction mixture, methanol/diethyl ether (3:1) was added to the pellet. […] The concentrations of the parent NSAIDs were measured using liquid chromatography-tandem mass spectrometry (LC-MS/MS). Aliquots of 10 μL were injected into the LC-MS/MS system. The LC-MS/MS equipment consisted of an LC system (UltiMate 3000 series, Thermo Fisher Scientific, Inc.) and TSQ Endura Triple Quadrupole Mass Spectrometer with electrospray ionization (Thermo Fisher Scientific, Inc.). Finnigan Xcalibur software (Thermo Fisher Scientific, Inc.) was used for data recording and analysis. Analysis was further performed using a reversed-phase column (COSMOSIL 5C18-MSII, 2.0 mm × 150 mm, 5 μm; Nacalai Tesque, Inc.). The column temperature was set to 40 °C, and the autosampler was maintained at 10 °C. The mobile phase (A; 30% methanol in 8.5 mM ammonium formate and 0.0075% formic acid, and B; 90% methanol in 8.5 mM ammonium formate and 0.0075% formic acid) was pumped at a flow rate of 0.2 mL/min. The initial mobile phase composition was maintained at 30% mobile phase B for 1 min, changed linearly to 90% mobile phase B from 1 to 8 min, maintained for 1 min, returned to 30% mobile phase B from 9 to 10 min, and maintained for 1 min for chromatographic column equilibrium. The MS scan was operated in positive ionization mode for DIC, MEF, ZOM, KET, and NAP, or negative ionization mode, for FLU. The conditions for electrospray ionization were set at 3500 V spray voltage for positive ionization mode and 2500 V spray voltage for negative ionization mode at 400 °C capillary temperature, and 300 °C vaporizer temperature with 40 arbitrary units of nitrogen sheath gas and 10 arbitrary units of auxiliary gas. The MS scan was operated in the positive or negative ionization mode. The selected reaction monitoring (SRM) mode was used, with argon as the collision gas at 1.5 mTorr. The mass resolution was set at 0.7 full-width at half-height (unit resolution). SRM transitions (precursor and product ions) were mass to charge ratios of (m/z) 296 > 214 for DIC (positive ionization mode), 294 > 250 for DIC (negative ionization mode), 242 > 224 for MEF, 292 > 139 for ZOM, 243 > 198 for R- and S-FLU, 255 > 209 for R- and S-KET, 231 > 185 for R- and S-NAP, and 302 > 220 for DIC-d4. The collision energies were 15 V for DIC (negative ionization mode), ZOM, MEF, FLU, KET, and NAP; 35 V for DIC (positive ionization mode); and DIC-d4. The concentrations of NSAIDs were determined from a single-point calibration in every assay for NSAIDs after confirmation of linearity between area and concentrations of NSAIDs.

[4] = tested on: proteins of Mit (mitochondrial fraction of liver homogenate); test: Covalent adduct formation of NSAIDs-AG with proteins of mitochondrial fraction (Mit); format: binding, rat; conditions: 180 μM, 6 h; for covalent adduct formation with Mit proteins: protein 1 mg/mL, 37 °C
UGT2B4 = target: T2, UGT2B4 (Homo sapiens, UniProt P06133); test: Covalent adduct formation of NSAIDs-AG with UGT2B4; format: binding; conditions: R vs S diastereomer; 180 μM, UGT 3.4 μM, 6 h
T2 construct: purchased Corning, Inc
T2 sequence (P06133 24-528): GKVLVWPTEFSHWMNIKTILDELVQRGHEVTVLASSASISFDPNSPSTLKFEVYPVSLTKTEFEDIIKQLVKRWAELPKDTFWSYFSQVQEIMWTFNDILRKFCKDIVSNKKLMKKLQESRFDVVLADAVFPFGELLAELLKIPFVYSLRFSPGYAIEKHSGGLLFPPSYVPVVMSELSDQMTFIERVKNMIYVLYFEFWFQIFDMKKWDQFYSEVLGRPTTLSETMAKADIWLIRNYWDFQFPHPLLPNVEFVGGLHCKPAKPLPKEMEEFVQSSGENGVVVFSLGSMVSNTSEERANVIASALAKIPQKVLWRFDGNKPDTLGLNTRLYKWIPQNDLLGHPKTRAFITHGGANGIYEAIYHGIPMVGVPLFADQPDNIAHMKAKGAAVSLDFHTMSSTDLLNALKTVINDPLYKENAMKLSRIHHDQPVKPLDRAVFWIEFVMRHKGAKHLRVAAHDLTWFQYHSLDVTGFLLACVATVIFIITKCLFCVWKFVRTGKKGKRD
Protocol: as §1

[5] = set-up: method as in PMID 20606003, PMID 1673415; conditions: phosphate buffers (pH 7.4); cited from earlier work
UGT1A9 = target: T3, UGT1A9 (Homo sapiens, UniProt O60656); test: Covalent adduct formation of NSAIDs-AG with UGT1A9; format: binding; conditions: 180 μM, UGT 3.4 μM, 6 h
T3 construct: purchased Corning, Inc
T3 sequence (O60656 26-530): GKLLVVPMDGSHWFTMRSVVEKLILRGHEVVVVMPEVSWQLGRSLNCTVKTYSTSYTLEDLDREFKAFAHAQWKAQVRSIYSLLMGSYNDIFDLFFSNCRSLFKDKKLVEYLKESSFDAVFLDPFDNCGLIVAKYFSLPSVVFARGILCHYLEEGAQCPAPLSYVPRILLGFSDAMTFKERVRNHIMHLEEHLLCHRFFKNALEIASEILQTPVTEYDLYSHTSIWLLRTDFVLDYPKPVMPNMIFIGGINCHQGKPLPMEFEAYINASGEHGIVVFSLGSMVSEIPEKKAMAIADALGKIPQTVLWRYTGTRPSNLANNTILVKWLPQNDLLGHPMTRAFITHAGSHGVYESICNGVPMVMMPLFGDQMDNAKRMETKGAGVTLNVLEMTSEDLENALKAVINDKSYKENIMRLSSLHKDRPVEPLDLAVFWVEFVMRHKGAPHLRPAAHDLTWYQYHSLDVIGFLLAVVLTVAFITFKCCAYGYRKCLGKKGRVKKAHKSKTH
Protocol: as §1, with “The conditions for electrospray ionization were set at 3500 V spray voltage for positive ionization mode and 2500 V spray voltage for negative ionization mode at 400 °C capillary temperature, and 300 °C vaporizer temperature with 40 arbitrary units of nitrogen sheath gas and 10 arbitrary units of auxiliary gas. The MS scan was operated in the positive or negative ionization mode. The selected reaction monitoring (SRM) mode was used, with argon as the collision gas at 1.5 mTorr. The mass resolution was set at 0.7 full-width at half-height (unit resolution). SRM transitions (precursor and product ions) were mass to charge ratios of (m/z) 296 > 214 for DIC (positive ionization mode), 294 > 250 for DIC (negative ionization mode), 242 > 224 for MEF, 292 > 139 for ZOM, 243 > 198 for R- and S-FLU, 255 > 209 for R- and S-KET, 231 > 185 for R- and S-NAP, and 302 > 220 for DIC-d4. The collision energies were 15 V for DIC (negative ionization mode), ZOM, MEF, FLU, KET, and NAP; 35 V for DIC (positive ionization mode); and DIC-d4.” left out

CC(C(=O)O[C@@H]1O[C@H](C(=O)O)[C@@H](O)[C@H](O)[C@H]1O)c1cccc(C(=O)c2ccccc2)c1 (stereo partly shown) [KET-AG]
covalent adduct formation with Cyt proteins [1]: formed covalent adducts | covalent adduct formation with Mic proteins ([2]; 180 μM, 6 h, 37 °C): formed covalent adducts | covalent adduct formation with Nuc proteins [3]: formed covalent adducts | covalent adduct formation with UGT2B7 compared with the other diastereomer (UGT2B7; R vs S diastereomer): remarkably stereoselective formation of a covalent adduct | covalent adduct formation with Mit proteins [4]: formed covalent adducts | covalent adduct formation with UGT2B4 compared with the other diastereomer (UGT2B4): remarkably stereoselective formation of a covalent adduct

O=C(Cc1ccccc1Nc1c(Cl)cccc1Cl)O[C@@H]1O[C@H](C(=O)O)[C@@H](O)[C@H](O)[C@H]1O [DIC-AG]
covalent adducts with organelle proteins (Cyt) relative to R-KET-AG ([1]; 1 mg/mL): approximately twice as high | covalent adduct formation with Cyt proteins [1]: formed covalent adducts | covalent adducts with organelle proteins (Mic) relative to R-KET-AG ([2]; 180 μM, 1 mg/mL, 6 h): approximately twice as high | covalent adduct formation with Mic proteins ([2]; 180 μM, 6 h, 37 °C): formed covalent adducts | number of covalent adducts with the proteins of Mic, effect of concentration and incubation time ([2]; DIC-AG 120-600 μM for 6 h, 180 μM for 1-24 h, Mic 1 mg/mL, 37 °C): increased in a concentration- and time-dependent manner | half-lives in buffers [5]: relatively short half-lives | covalent adducts with organelle proteins (Nuc) relative to R-KET-AG ([3]; 1 mg/mL): approximately twice as high | covalent adduct formation with Nuc proteins [3]: formed covalent adducts | amounts of covalent adducts with UGT2B7 compared with UGT1A9 (UGT2B7): significantly lower amounts of covalent adducts | capacity to form covalent adducts with UGT2B7 relative to mefenamic acid-AG (UGT2B7): approximately 10 times | covalent adduct formation with UGT2B7 (UGT2B7): higher amounts of covalent adducts | covalent adducts with organelle proteins (Mit) relative to R-KET-AG ([4]; 1 mg/mL): approximately twice as high | covalent adduct formation with Mit proteins [4]: formed covalent adducts | capacity to form covalent adducts with UGT1A9 relative to mefenamic acid-AG (UGT1A9): approximately 10 times

COc1ccc2cc(C(C)C(=O)O[C@@H]3O[C@H](C(=O)O)[C@@H](O)[C@H](O)[C@H]3O)ccc2c1 (stereo partly shown) [NAP-AG]
half-lives in buffers [5]: relatively short half-lives | covalent adduct formation with UGT2B7 (UGT2B7): higher amounts of covalent adducts
